BigSolDB 2.1

COC(=O)/C=C/C(=O)OC
Details	solubility (mole fraction)
in ethanol, 289.95 K	0.00328
in ethanol, 294.45 K	0.00465
in ethanol, 297.55 K	0.00607
in ethanol, 303.15 K	0.00908
in ethanol, 307.3 K	0.0122
in ethanol, 311.1 K	0.0157
in ethanol, 314.75 K	0.0199
in ethanol, 318.65 K	0.0253
in ethanol, 322.55 K	0.0326
in ethanol, 327.35 K	0.0431
in ethanol, 331.85 K	0.058
in ethanol, 336.05 K	0.0751
in isopropanol, 295.8 K	0.00533
in isopropanol, 300.95 K	0.00748
in isopropanol, 304.35 K	0.0097
in isopropanol, 306.7 K	0.0117
in isopropanol, 309.85 K	0.0148
in isopropanol, 312.55 K	0.0183
in isopropanol, 316.85 K	0.025
in isopropanol, 320 K	0.0318
in isopropanol, 322.8 K	0.0396
in isopropanol, 326.25 K	0.0486
in isopropanol, 329.75 K	0.0629
in isopropanol, 332.85 K	0.0785
in isopropanol, 335.8 K	0.0997
in methanol, 297.45 K	0.00749
in methanol, 301 K	0.00948
in methanol, 305.55 K	0.0122
in methanol, 309.17 K	0.0152
in methanol, 312.85 K	0.0189
in methanol, 316.45 K	0.0231
in methanol, 319.37 K	0.0279
in methanol, 322.28 K	0.0335
in methanol, 325.93 K	0.04
in methanol, 329.15 K	0.0491
in methanol, 332.3 K	0.06
in methanol, 337.65 K	0.081
in n-propanol, 295.2 K	0.00504
in n-propanol, 299.95 K	0.00668
in n-propanol, 304.35 K	0.00906
in n-propanol, 307.85 K	0.0114
in n-propanol, 310.7 K	0.0138
in n-propanol, 313.2 K	0.0174
in n-propanol, 318.7 K	0.0253
in n-propanol, 323.65 K	0.0369
in n-propanol, 328.95 K	0.0535
in n-propanol, 332.5 K	0.0686
in n-propanol, 335.65 K	0.087
in n-propanol, 338.15 K	0.106
in n-propanol, 341.3 K	0.136
in propylene glycol, 302.75 K	0.000378
in propylene glycol, 307.05 K	0.000797
in propylene glycol, 310.55 K	0.00143
in propylene glycol, 314.25 K	0.00255
in propylene glycol, 316.75 K	0.00366
in propylene glycol, 320.05 K	0.00586
in propylene glycol, 323.25 K	0.00886
in propylene glycol, 327.95 K	0.0149
in propylene glycol, 332.15 K	0.023
in propylene glycol, 337.25 K	0.0349
in propylene glycol, 342.35 K	0.051
in propylene glycol, 347.15 K	0.073
in water, 300.55 K	9.27e-05
in water, 302.6 K	0.000116
in water, 309.85 K	0.000236
in water, 315.45 K	0.000365
in water, 322.4 K	0.000575
in water, 328.05 K	0.000781
in water, 333.25 K	0.000989
in water, 337.05 K	0.00113
in water, 340.65 K	0.00132
in water, 344.45 K	0.00148
